From PMC4268712, “Steroidal and non-steroidal third-generation aromatase inhibitors induce pain-like symptoms via TRPA1” (Nature Communications, 2014) come the findings set out here.

Assay [1] has as its target T1, transient receptor potential ankyrin 1 (TRPA1) (Homo sapiens, UniProt O75762). Nature of the assay: calcium imaging (and whole-cell patch clamp) in hTRPA1-HEK293 cells, blocked by HC-030031, absent in untransfected cells. The assay is classed as cell-based.
Assay [2] has as its target T1, transient receptor potential ankyrin 1 (TRPA1). Nature of the assay: calcium imaging in HEK293 cells transfected with wild-type hTRPA1 ([…]). The assay is classed as cell-based.

T1 sequence (O75762 whole entry): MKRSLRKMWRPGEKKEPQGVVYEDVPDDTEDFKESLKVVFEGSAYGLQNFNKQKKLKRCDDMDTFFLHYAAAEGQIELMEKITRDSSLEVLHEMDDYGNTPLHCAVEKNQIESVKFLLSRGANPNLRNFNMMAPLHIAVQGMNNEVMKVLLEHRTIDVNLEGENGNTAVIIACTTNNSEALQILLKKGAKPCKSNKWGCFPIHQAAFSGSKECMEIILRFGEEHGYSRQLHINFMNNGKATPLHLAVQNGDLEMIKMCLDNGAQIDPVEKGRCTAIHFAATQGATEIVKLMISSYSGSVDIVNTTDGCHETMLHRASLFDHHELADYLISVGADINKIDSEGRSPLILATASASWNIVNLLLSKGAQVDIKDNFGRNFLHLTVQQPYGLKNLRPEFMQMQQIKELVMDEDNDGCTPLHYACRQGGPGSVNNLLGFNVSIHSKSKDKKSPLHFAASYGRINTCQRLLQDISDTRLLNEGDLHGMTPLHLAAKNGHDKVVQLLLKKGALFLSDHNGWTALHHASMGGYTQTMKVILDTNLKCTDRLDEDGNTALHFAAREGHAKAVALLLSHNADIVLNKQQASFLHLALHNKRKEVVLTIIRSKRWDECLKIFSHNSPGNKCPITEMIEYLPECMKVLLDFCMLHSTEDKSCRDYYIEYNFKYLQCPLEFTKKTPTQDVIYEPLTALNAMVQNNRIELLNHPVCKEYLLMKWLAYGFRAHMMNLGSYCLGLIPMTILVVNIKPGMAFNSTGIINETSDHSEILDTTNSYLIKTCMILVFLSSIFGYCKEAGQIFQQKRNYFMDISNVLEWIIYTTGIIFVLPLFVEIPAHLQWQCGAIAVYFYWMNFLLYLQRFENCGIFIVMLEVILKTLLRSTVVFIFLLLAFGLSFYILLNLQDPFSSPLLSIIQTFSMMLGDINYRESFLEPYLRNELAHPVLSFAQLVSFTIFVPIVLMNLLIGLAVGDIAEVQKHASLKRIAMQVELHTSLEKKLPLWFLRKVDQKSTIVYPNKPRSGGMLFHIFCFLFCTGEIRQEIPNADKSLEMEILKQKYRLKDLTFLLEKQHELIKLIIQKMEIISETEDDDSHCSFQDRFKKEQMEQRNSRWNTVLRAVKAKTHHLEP

One may read the EC50 as the midpoint of the concentration-response curve. As to `CC(C)(C#N)c1cc(Cn2cncn2)cc(C(C)(C)C#N)c1` [ANA, anastrozole], in assay [1], the EC50 was determined as 134 µM. As to `C=C1C[C@@H]2[C@H](CC[C@]3(C)C(=O)CC[C@@H]23)[C@@]2(C)C=CC(=O)C=C12` [EXE, exemestane], the EC50 in assay [1] was 58 µM. The same measure, in the same setting: as for `N#Cc1ccc(C(c2ccc(C#N)cc2)n2cncn2)cc1` [LTZ, letrozole], the figure is 69 µM.

As to `CC1CCC(C(C)C)C(O)C1` (stereo not shown) [menthol], the “calcium imaging in HEK293 cells transfected with wild-type hTRPA1 (100 μM)” value in assay [2] is given as “HEK293 cells transfected with the cDNA codifying for wild-type hTRPA1 (WT) respond to all the drugs”.
